According to patent US8609835B2, “Polysaccharide composition and methods of isolation of the emulsion stabilizing cationic polyelectrolytic polysaccharide” (Trustees Of Tufts College, priority 2008, dated 2013):

Experiment: Aqueous solubility (statements)

Acinetobacter polyelectrolyte exopolysaccharide [APE]
solubility in aqueous solutions versus pH: soluble throughout the pH range
